Data taken from the CheMixHub viscosity set.
± gives the uncertainty stated by the source.

Experiment: xn = mol fraction of the nth substance listed

`CCCC[N+](CCCC)(CCCC)CCCC.F[B-](F)(F)F` + CC#N gave a viscosity (293.15 K, 100 kPa, x1 = 0.004121) of 0.423 ± 0.009 mPa·s, a viscosity (293.15 K, 100 kPa, x1 = 0.008132) of 0.446 ± 0.01 mPa·s and a viscosity (293.15 K, 100 kPa, x1 = 0.01219) of 0.472 ± 0.01 mPa·s. The viscosity (293.15 K, 100 kPa, x1 = 0.01614) was 0.499 ± 0.011 mPa·s, the viscosity (293.15 K, 100 kPa, x1 = 0.02013) was 0.528 ± 0.011 mPa·s and the viscosity (293.15 K, 100 kPa, x1 = 0.0241) was 0.559 ± 0.012 mPa·s. For the same molecule, the viscosity (293.15 K, 100 kPa, x1 = 0.02789) was 0.591 ± 0.013 mPa·s, the viscosity (293.15 K, 100 kPa, x1 = 0.03177) was 0.625 ± 0.013 mPa·s and the viscosity (293.15 K, 100 kPa, x1 = 0.03562) was 0.661 ± 0.014 mPa·s. The viscosity (293.15 K, 100 kPa, x1 = 0.0394) was 0.698 ± 0.015 mPa·s, the viscosity (298.15 K, 100 kPa, x1 = 0.004121) was 0.404 ± 0.009 mPa·s and the viscosity (298.15 K, 100 kPa, x1 = 0.008132) was 0.426 ± 0.009 mPa·s. For the same molecule, the viscosity (298.15 K, 100 kPa, x1 = 0.01219) was 0.45 ± 0.01 mPa·s, the viscosity (298.15 K, 100 kPa, x1 = 0.01614) was 0.475 ± 0.01 mPa·s and the viscosity (298.15 K, 100 kPa, x1 = 0.02013) was 0.502 ± 0.011 mPa·s. For the same molecule, the viscosity (298.15 K, 100 kPa, x1 = 0.0241) was 0.532 ± 0.011 mPa·s, the viscosity (298.15 K, 100 kPa, x1 = 0.02789) was 0.561 ± 0.012 mPa·s and the viscosity (298.15 K, 100 kPa, x1 = 0.03177) was 0.594 ± 0.013 mPa·s. It also gave a viscosity (298.15 K, 100 kPa, x1 = 0.03562) of 0.628 ± 0.013 mPa·s, a viscosity (298.15 K, 100 kPa, x1 = 0.0394) of 0.663 ± 0.014 mPa·s and a viscosity (303.15 K, 100 kPa, x1 = 0.004121) of 0.385 ± 0.008 mPa·s. It also gave a viscosity (303.15 K, 100 kPa, x1 = 0.008132) of 0.406 ± 0.009 mPa·s, a viscosity (303.15 K, 100 kPa, x1 = 0.01219) of 0.429 ± 0.009 mPa·s and a viscosity (303.15 K, 100 kPa, x1 = 0.01614) of 0.453 ± 0.01 mPa·s. For the same molecule, the viscosity (303.15 K, 100 kPa, x1 = 0.02013) was 0.48 ± 0.01 mPa·s, the viscosity (303.15 K, 100 kPa, x1 = 0.0241) was 0.507 ± 0.011 mPa·s and the viscosity (303.15 K, 100 kPa, x1 = 0.02789) was 0.536 ± 0.011 mPa·s. The viscosity (303.15 K, 100 kPa, x1 = 0.03177) was 0.567 ± 0.012 mPa·s, the viscosity (303.15 K, 100 kPa, x1 = 0.03562) was 0.599 ± 0.013 mPa·s and the viscosity (303.15 K, 100 kPa, x1 = 0.0394) was 0.633 ± 0.014 mPa·s. It also gave a viscosity (308.15 K, 100 kPa, x1 = 0.004121) of 0.369 ± 0.008 mPa·s, a viscosity (308.15 K, 100 kPa, x1 = 0.008132) of 0.389 ± 0.008 mPa·s and a viscosity (308.15 K, 100 kPa, x1 = 0.01219) of 0.411 ± 0.009 mPa·s. It also gave a viscosity (308.15 K, 100 kPa, x1 = 0.01614) of 0.433 ± 0.009 mPa·s, a viscosity (308.15 K, 100 kPa, x1 = 0.02013) of 0.458 ± 0.01 mPa·s and a viscosity (308.15 K, 100 kPa, x1 = 0.0241) of 0.484 ± 0.01 mPa·s. It also gave a viscosity (308.15 K, 100 kPa, x1 = 0.02789) of 0.511 ± 0.011 mPa·s, a viscosity (308.15 K, 100 kPa, x1 = 0.03177) of 0.54 ± 0.012 mPa·s and a viscosity (308.15 K, 100 kPa, x1 = 0.03562) of 0.57 ± 0.012 mPa·s. The viscosity (308.15 K, 100 kPa, x1 = 0.0394) was 0.602 ± 0.013 mPa·s, the viscosity (313.15 K, 100 kPa, x1 = 0.004121) was 0.354 ± 0.008 mPa·s and the viscosity (313.15 K, 100 kPa, x1 = 0.008132) was 0.373 ± 0.008 mPa·s. For the same molecule, the viscosity (313.15 K, 100 kPa, x1 = 0.01219) was 0.393 ± 0.008 mPa·s, the viscosity (313.15 K, 100 kPa, x1 = 0.01614) was 0.414 ± 0.009 mPa·s and the viscosity (313.15 K, 100 kPa, x1 = 0.02013) was 0.437 ± 0.009 mPa·s. It also gave a viscosity (313.15 K, 100 kPa, x1 = 0.0241) of 0.462 ± 0.01 mPa·s, a viscosity (313.15 K, 100 kPa, x1 = 0.02789) of 0.487 ± 0.01 mPa·s and a viscosity (313.15 K, 100 kPa, x1 = 0.03177) of 0.514 ± 0.011 mPa·s. The viscosity (313.15 K, 100 kPa, x1 = 0.03562) was 0.543 ± 0.012 mPa·s, the viscosity (313.15 K, 100 kPa, x1 = 0.0394) was 0.572 ± 0.012 mPa·s and the viscosity (318.15 K, 100 kPa, x1 = 0.004121) was 0.34 ± 0.007 mPa·s. For the same molecule, the viscosity (318.15 K, 100 kPa, x1 = 0.008132) was 0.358 ± 0.008 mPa·s, the viscosity (318.15 K, 100 kPa, x1 = 0.01219) was 0.377 ± 0.008 mPa·s and the viscosity (318.15 K, 100 kPa, x1 = 0.01614) was 0.397 ± 0.008 mPa·s. For the same molecule, the viscosity (318.15 K, 100 kPa, x1 = 0.02013) was 0.418 ± 0.009 mPa·s, the viscosity (318.15 K, 100 kPa, x1 = 0.0241) was 0.441 ± 0.009 mPa·s and the viscosity (318.15 K, 100 kPa, x1 = 0.02789) was 0.464 ± 0.01 mPa·s. The viscosity (318.15 K, 100 kPa, x1 = 0.03177) was 0.489 ± 0.01 mPa·s, the viscosity (318.15 K, 100 kPa, x1 = 0.03562) was 0.516 ± 0.011 mPa·s and the viscosity (318.15 K, 100 kPa, x1 = 0.0394) was 0.544 ± 0.012 mPa·s. For the same molecule, the viscosity (323.15 K, 100 kPa, x1 = 0.004121) was 0.327 ± 0.007 mPa·s, the viscosity (323.15 K, 100 kPa, x1 = 0.008132) was 0.344 ± 0.007 mPa·s and the viscosity (323.15 K, 100 kPa, x1 = 0.01219) was 0.362 ± 0.008 mPa·s. It also gave a viscosity (323.15 K, 100 kPa, x1 = 0.01614) of 0.38 ± 0.008 mPa·s, a viscosity (323.15 K, 100 kPa, x1 = 0.02013) of 0.4 ± 0.009 mPa·s and a viscosity (323.15 K, 100 kPa, x1 = 0.0241) of 0.422 ± 0.009 mPa·s. It also gave a viscosity (323.15 K, 100 kPa, x1 = 0.02789) of 0.443 ± 0.009 mPa·s, a viscosity (323.15 K, 100 kPa, x1 = 0.03177) of 0.467 ± 0.01 mPa·s and a viscosity (323.15 K, 100 kPa, x1 = 0.03562) of 0.491 ± 0.01 mPa·s. The viscosity (323.15 K, 100 kPa, x1 = 0.0394) was 0.517 ± 0.011 mPa·s.

With `ClC(Cl)C(Cl)Cl` + CC#N the viscosity (303.15 K, 101.32 kPa, x2 = 0.1125) was 1.381 ± 0.015 mPa·s, the viscosity (303.15 K, 101.32 kPa, x2 = 0.2007) was 1.315 ± 0.015 mPa·s and the viscosity (303.15 K, 101.32 kPa, x2 = 0.2582) was 1.266 ± 0.014 mPa·s. The viscosity (303.15 K, 101.32 kPa, x2 = 0.3568) was 1.17 ± 0.013 mPa·s, the viscosity (303.15 K, 101.32 kPa, x2 = 0.4174) was 1.103 ± 0.013 mPa·s and the viscosity (303.15 K, 101.32 kPa, x2 = 0.4937) was 1.012 ± 0.012 mPa·s. It also gave a viscosity (303.15 K, 101.32 kPa, x2 = 0.5964) of 0.8767 ± 0.011 mPa·s, a viscosity (303.15 K, 101.32 kPa, x2 = 0.6989) of 0.7317 ± 0.0099 mPa·s and a viscosity (303.15 K, 101.32 kPa, x2 = 0.8504) of 0.5162 ± 0.0081 mPa·s. It also gave a viscosity (303.15 K, 101.32 kPa, x2 = 0.9233) of 0.4184 ± 0.0073 mPa·s.

`N#CCCO` + CC#N gave a viscosity (298 K, 101 kPa, x1 = 0.1342) of 0.466 ± 0.004 mPa·s, a viscosity (298 K, 101 kPa, x1 = 0.2793) of 0.689 ± 0.006 mPa·s and a viscosity (298 K, 101 kPa, x1 = 0.4366) of 0.906 ± 0.008 mPa·s. For the same molecule, the viscosity (298 K, 101 kPa, x1 = 0.6079) was 1.358 ± 0.011 mPa·s and the viscosity (298 K, 101 kPa, x1 = 0.7949) was 2.144 ± 0.018 mPa·s.
